In patent US5760036A, “Aminediol protease inhibitors” (E. R. Squibb & Sons, Inc., priority 1995, dated 1998):
Read-outs that look alike come from different tables or passages of the source.

Columns and labels:
[1] = tested on: RF strain of HIV (CEM-SS cells); assay: Cell Culture Anti-HIV Activity (cell viability, formazan); assay type: cell-based; settings: Human immunodeficiency virus 1, CEM-SS, 144 h, CEM-SS cells, RF strain of HIV, multiplicity of infection 0.04, 6 days at 37° C., 450 nm; read-out: HIV (CEM Cells) IC50
Protocol: The antiviral activity of aminediol inhibitors of the present invention was evaluated by a microculture method which determines the increase in cell viability of an infected culture when a drug is added. The assay depends on the metabolic reduction of tetrazolium reagent by viable cells to yield a soluble colored formazan product.
The assay was performed as follows: suspensions of CEM-SS cells (5000/well) were infected with the RF strain of HIV at a multiplicity of infection at 0.04 in a 96-well plate. The compounds of the present invention listed in the following Table 1, serially diluted in half-log fashion, were added to the infected and uninfected control cells. Untreated (infected and uninfected) cells were included as controls. Following incubation for 6 days at 37° C., viable cells in each well were quantitated by the visible light absorbance at 450 nm.
The IC50 was calculated as the concentration of drug that increased the formazan production in virally infected cells to 50% of that produced by uninfected cells in the absence of drug.

HIV protease = biological target: T1, HIV protease (Human immunodeficiency virus type 1 group M subtype B, UniProt P04585); assay: HIV Protease Assay; assay type: biochemical; settings: for HIV Protease % Inhibition at 10 μM: 10 μM inhibitor
T1 construct: and purified protease
Outline: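 Purified protease cleaved 450 μM octapeptide substrate in 50 mM sodium acetate pH 5.5 with 100 μg/ml BSA for 30 minutes at 37° C; product analyzed by reverse-phase HPLC at UV220 after H3PO4 quench. Inhibitors tested at final 10 μM with 4% DMSO.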

[2] = pH 5.5, 10 μM inhibitor, 4% DMSO, 450 μM substrate, pH 5.5, 30 minutes at 37° C., RP-HPLC, read-out: HIV Protease % Inhibition at 10 μM
[3] = pH 5.5, read-out: HIV Protease % Inhibition at 10 μM
[4] = 4% DMSO, 450 μM substrate, pH 5.5, 30 minutes at 37° C., RP-HPLC

| Compound | inhibition at 10 µM (HIV protease; [2]) | inhibition at 10 µM (HIV protease; [3]) | HIV Protease % Inhibition at 10 μM (HIV protease; [4]) | IC50 [1] |
| --- | --- | --- | --- | --- |
| CC(C)[C@H](NC(=O)c1ccc2ccccc2c1)C(=O)N[C@@H](Cc1ccccc1)[C@H](O)CNC[C@@H](O)[C@H](Cc1ccccc1)NC(=O)OC(C)(C)C [Compound 79, [S-[1R*,2S*(2S*,3R*)]]-N-[3-[[3-[[(1,1-Dimethylethoxy)carbonyl]amino]-2-hydroxy-4-phenylbutyl]amino]-2-hydroxy-1-(phenylmethyl)propyl]-N^2 (2-naphthalenylcarbonyl)-L-valinamide] | 99% |  |  | 400 nM |
| CC(C)[C@H](NC(=O)OC[C@@H](O)CO)C(=O)N[C@@H](Cc1ccccc1)[C@H](O)CNC[C@@H](O)[C@H](Cc1ccccc1)NC(=O)OC(C)(C)C (relative stereo) [Compound 202, [[1R*,2S*(2S*,3R*)],N^2-(R*)]-N^2-[(2,3-Dihydroxypropoxy)carbonyl]-N-[3-[[3-[[(1,1-dimethylethoxy)carbonyl]amino]-2-hydroxy-4-phenylbutyl]amino]-2-hydroxy-1-(phenylmethyl)propyl]-L-valinamide] | 95% |  |  | 16000 nM |
| C[C@H](O)[C@H](NC(=O)OCc1ccccc1)C(=O)N[C@@H](Cc1ccccc1)[C@H](O)CNC[C@@H](O)[C@H](Cc1ccccc1)NC(=O)OC(C)(C)C (relative stereo) [Compound 205, [1R*,2S*(2S*,3R*)]-N-[3-[[3-[[(1,1-Dimethylethoxy)carbonyl]amino]-2-hydroxy-4-phenylbutyl]amino]-2-hydroxy-1-(phenylmethyl)propyl]-N^2-[(phenylmethoxy)carbonyl]-L-allothreoninamide] | 98% |  |  | 70 nM |
| CC(C)(C)OC(=O)N[C@@H](Cc1ccccc1)[C@H](O)CNC[C@@H](O)[C@H](Cc1ccccc1)NC(=O)[C@@H](NC(=O)OCC1COC(=O)N1)C(C)(C)C (stereo partly drawn) [Compound 315, [S-[1R*,2S*(2S*,3R*)]]-[2,2-Dimethyl-l-[[[3-[[3-[[(1,1-dimethylethoxy)carbonyl]amino]-2-hydroxy-4-phenylbutyl]amino]-2-hydroxy-1-(phenylmethyl)-propyl]amino]carbonyl]propyl]carbamic acid, (2-oxo-4-oxazolidinyl)methyl ester] | 100% |  |  | 1600 nM |
| CC(C)[C@H](NC(=O)CCn1[nH]c2ccccc2c1=O)C(=O)N[C@@H](Cc1ccccc1)[C@H](O)CNC[C@@H](O)[C@H](Cc1ccccc1)NC(=O)OC(C)(C)C (relative stereo) [Compound 250, [1R*,2S*(2S*,3R*)]-N^2-[3-(1,3-Dihydro-3-oxo-2H-indazol-2-yl)-1-oxopropyl]-N-[3-[[3-[[(1,1-dimethylethoxy)carbonyl]amino]-2-hydroxy-4-phenylbutyl]amino]-2-hydroxy-1-(phenylmethyl)propyl]-L-valinamide] | 100% |  |  | 1500 nM |
| CC(C)(C)OC(=O)N[C@@H](Cc1ccccc1)[C@H](O)CNC[C@@H](O)[C@H](Cc1ccccc1)NC(=O)COc1cccc2ccccc12 [Compound 63, [1S-[1R*,2S*(2S*,3R*)]]-[2-Hydroxy-3-[[2-hydroxy-3-[[(1-naphthalenyloxy)-acetyl]amino]-4-phenylbutyl]amino]-1-(phenyl-methyl)propyl]carbamic acid, 1,1-dimethylethyl ester] | 53% |  |  |  |
| CN(Cc1ccccc1)C(=O)N[C@@H](Cc1ccccc1)[C@H](O)CNC[C@@H](O)[C@H](Cc1ccccc1)NC(=O)OC(C)(C)C [Compound 69, [1S-[1R*,2S*(2S*,3R*)]]-2-Hydrox3-[[2-hydroxy-3-[[[methyl(phenylmethyl)-amino]carbonyl]amino]-4-phenylbutyl]amino]-1-(phenylmethyl)propyl]carbamic acid, 1,1-dimethylethyl ester] | 11% |  |  |  |
| CN(C)C(=O)OCCOc1ccc(C[C@H](NC(=O)OC(C)(C)C)[C@H](O)CNC[C@@H](O)[C@H](Cc2ccccc2)NC(=O)OC(C)(C)C)cc1 [Compound 372, [1S-[1R*,2S*(2S*, 3R*)[[-]3-]]4-]4-[2-[[(Dimethylamino)carbonyl]oxy]ethoxyl]phenyl]-3-[[(1,1-dimethylethoxy)carbonyl]amino]-2-hydroxybutyl]amino]-2-hydroxy-1-(phenylmethyl) propyl]carbamic acid] |  | 98% |  |  |
| CCc1ccccc1CC(NC(=O)OC(C)(C)C)C(O)CNCC(O)C(Cc1ccccc1)NC(=O)OC(C)(C)C (centres unmarked) [Compound 371] | 98% |  |  |  |

Further lines, with some results ahead:

| inhibition at 10 µM (HIV protease; [2]) | inhibition at 10 µM (HIV protease; [3]) | HIV Protease % Inhibition at 10 μM (HIV protease; [4]) | Compound | IC50 [1] |
| --- | --- | --- | --- | --- |
| 99% |  |  | CC(C)(C)OC(=O)N[C@@H](Cc1ccccc1)[C@H](O)CNC[C@@H](O)[C@H](Cc1ccccc1)NC(=O)O[C@H]1CCOC1 [Compound 331, [1S-(1R*,2S*,3R*)]-[Iminobis[2-hydroxy-1-(phenylmethyl)-3,1-propanediyl]]bis[carbamic acid], 3-tetrahydrofuranyl 1,1-dimethylethyl ester] | 60 nM |
|  | 99% |  | CC(C)(C)OC(=O)N[C@@H](Cc1ccccc1)[C@H](O)CNC[C@@H](O)[C@H](Cc1ccccc1)NC(=O)C(C)(O)C(C)(C)CO (single isomer, unassigned; isomer a) [Compound 356, [1S-[1R*,2S*(2S*,3R*)]]-[3-[3-[2,4-Dihydroxy-2,3,3-trimethyl-1-oxobutyl)amino]-2-hydroxy-4-phenylbutyl]amino]-2-hydroxy-1-(phenylmethyl)propyl]carbamic acid, 1,1-dimethylethyl ester, isomer A] | 120 nM |
| 88% |  |  | CC(C)(C)OC(=O)N[C@@H](Cc1ccccc1)[C@H](O)CNC[C@@H](O)[C@H](Cc1ccccc1)NC(=O)OC1CCc2ccccc21 (stereo partly drawn) [Compound 144, [1S-(1R*,2S*)]-[Iminobis[2-hydroxy-1-(phenylmethyl)-3,1-propanediyl)]-bis[carbamic acid], 1,1-dimethylethyl-2,3-dihydro-1H-inden-1-yl ester] | 1000 nM |
| 27% |  |  | CC(C)(C)OC(=O)N[C@@H](Cc1ccccc1)[C@H](O)CNC[C@@H](O)[C@H](Cc1ccccc1)NC(=O)[C@@H](O)c1ccccc1 [Compound 378, [1S-[1R*,2S*[2S*, 3R*(R*)]]]-[3-[[3-[2-Hydroxy-1-oxo-2-phenylethyl)amino]-2-hydroxy-4-phenylbutyl]amino]-2-hydroxy-1-(phenylmethyl)propyl]carbamic acid, 1-dimethylethyl ester] |  |
|  |  | 65% | CC(C)(C)OC(=O)N[C@@H](Cc1ccccc1)[C@H](O)CNC[C@@H](O)[C@H](Cc1ccccc1)NC(=O)C(CCO)C(C)(C)C (single isomer, unassigned; isomer b) [Compound 313, [1S-[1R*, 2S* (2S*, 3R*)][-[3-[[3-[[2-(1,1-Dimethylethyl)-4-hydroxy-1-oxobutyl]amino]-2-hydroxy-4-phenylbutyl]amino]-2-hydroxy-1-(phenylmethyl)propyl]carbamic acid, 1,1-dimethylethyl ester, isomer B] |  |
| 85% |  |  | CC(C)(C)OC(=O)N[C@@H](Cc1ccccc1)[C@H](O)CNC[C@@H](O)[C@H](Cc1ccccc1)NC(=O)O[C@@H]1COC[C@H]1O [Compound 317, [1S-(1R*,2S*), (3R-trans)l-[Iminobis[2-hydroxy-1-(phenylmethyl)-3,1-propanediyl]]bis[carbamic acid], 4-hydroxy-3-tetrahydrofuranyl 1,1-dimethylethyl ester] |  |
|  |  | 87% | CC(C)(C)OC(=O)N[C@@H](Cc1ccccc1)[C@H](O)CNC[C@@H](O)[C@H](Cc1ccccc1)NC(=O)C(O)C(F)(F)F (single isomer, unassigned; isomer b) [Compound 272, [1S-[1R*,2S*(2S*,3R*)]]-[2-Hydroxy-1-(phenylmethyl)-3-[[2-hydroxy-4-phenyl-3-[(3.3,3-trifluoro-2-hydroxy-1-oxopropyl)amino]butyl]amino]propyl]carbamic acid,1,1-dimethylethyl ester (isomer B)] |  |
| 73% |  |  | CC(C)(C)OC(=O)N[C@@H](Cc1ccccc1)[C@H](O)CNC[C@@H](O)[C@H](Cc1ccccc1)NC(=O)C(C)(C)CCO [Compound 291, [1S-[1R*,2S*(2S*,3R*)]]-[2-Hydroxy-3-[[2-hydroxy-3-[(4-hydroxy-2,2-dimethyl-1-oxobutyl)amino]-4-phenylbutyl]amino]-1-(phenylmethyl)propyl]carbamic acid, 1,1-dimethylethyl ester] |  |
| 56% |  |  | COC(=O)N[C@@H](C(=O)N[C@@H](Cc1ccccc1)[C@H](O)CNC[C@@H](O)[C@H](Cc1ccccc1)NC(=O)OC(C)(C)C)C(C)(C)C (relative stereo) [Compound 340, [1S*,2R*(2R*,3S*)]-N-[3-[[3-[[(1,1-Dimethylethoxy)carbonyl]amino]-2-hydroxy-4-phenylbutyl]amino]-2-hydroxy-1-(phenylmethyl)propyl]-N^2-(2-methoxycarbonyl)-3-methyl-D-valinamide] |  |
